In patent US7715901B2, “Sensitized online BOLD-MRI imaging method” (Yeda Research and Development Co. Ltd., priority 2002, dated 2010):

How the values were obtained:
[1] = tested on: melanoma, glioma, sarcoma and human prostate xenografts; details: cited from earlier work; for Cure rates after anti-vascular PDT: mice and rats
[2] = tested on: M2R melanoma xenografts; test: Follow up of tumor response after Pd-Bpheid PDT; assay type: in vivo, mouse
Protocol: (i) Animals, tumor model and PDT Male CD1 nude mice (30 g±2 g) were implanted s.c. with M2R melanoma xenografts. PDT of anesthetized mice was performed on tumors (7-9 mm in diameter), as previously described (Zilberstein et al., 2001), with slight changes to allow for manipulation inside the magnet during MRI recording, or to perform PDT on the anesthetized mouse placed on the microscope stage during IVM. Intravenous (i.v.) Pd-Bpheid administration (5 mg/kg in vehicle, provided by Negma-Lerads Laboratoires, Toussus Le-Noble, France) was immediately followed by fiber optic guided tumor illumination (light spot Ø=1 cm^2, 763 nm, 102 J/cm^2) for 10 minutes, using a 1 W diode laser (CeramOptec GmbH, Bonn, Germany). The experiments were performed inside the magnet during the MRI recording (see details below). Room temperature was kept constant (28° C.) throughout the experiments.
PDT was performed in three modes: (i) for tumor therapy, i.v. Pd-Bpheid administration was immediately followed by transcutaneous illumination; (ii) for MR imaging, Pd-Bpheid administration (by remotely activated i.v. catheterization) and transcutaneous illumination were performed inside the magnet (FIG. 5A); and (iii) for IVM, Pd-Bpheid administration and illumination of the semi-transparent mouse ear were conducted on top of the microscope stage.
Controls: Light control: illumination of tumors in mice administered with vehicle alone (without photosensitizer). Dark control, Pd-Bpheid administered to tumor-bearing mice without illumination. Mice were euthanized (CO2) to avoid tumor burden when tumors reached ≧10% of body weight. All experiments were conducted according to institutional animal welfare regulations.
Male CD1 nude mice, s.c. implanted with M2R melanoma xenografts were i.v.-injected with Pd-Bpheid (5 mg/kg) and instantly illuminated for 10 minutes (102 J/cm^2). Hemorrhagic tumor necrosis (10/11 mice within 24-48 h) was accompanied by a strong inflammatory response. Tumors in untreated (4/4) light (4/4 mice) or dark (4/4 mice) controls continued to grow reaching […] of body […] by 9±3 days. […]

[3] = tested on: M2R melanoma tumor blood vessels; test: Immunohistochemistry of HNE-protein adducts (lipid peroxidation) in tumors after PDT; assay type: in vivo, mouse; details: tumors dissected 1 hour after PDT
Source text: (iii) Immunohistochemistry (IHC): Histological and immunohistological examinations were used for validation of the results obtained during the PDT experiments conducted by MRI and IVM. Dissected tumors were fixed in paraformaldehyde, and embedded in paraffin. IHC of PDT-induced LPO was based on immunodetection of HNE (4-hydroxynonenal), an aldehydic peroxidation product of polyunsaturated fatty acids that forms covalent adducts with proteins by reductive amination and/or Michael type addition (Uchida et al., 1995). PDT-damaged areas were visualized by IHC with anti-HNE. Thus, tumor sections were re-hydrated, blocked with bovine serum albumin for 4 h at 37° C., and treated with rabbit anti-HNE antiserum specifically recognizing HNE adducts (Calbiochem, La Jolla, Calif., USA, 1:400). HRP-conjugated goat anti-rabbit antibody served as 2nd antibody (Jackson, West Grove, Pa., USA) using 3-amino-9-ethylcarbazole as a chromogenic substrate (AEC, Sigma, St. Louis, Mo., USA).
Tumors were dissected 1 hour after PDT, fixed and prepared for IHC. […] In tumors taken from light controls (FIGS. 2B, 2E) or dark controls (data not shown), HNE staining was negative in blood vessels and was seen only in necrotic tumor core (spontaneous, PDT independent). FIGS. 2A, 2B and 2C are parallel adjacent sections of 2D, 2E and 2F, respectively, stained with hematoxylin-eosin.

[4] = tested on: mouse ear lobe blood vessels; test: Fluorescent intravital microscopy of PDT-induced hemodynamic changes; assay type: in vivo
Protocol: (iv) Intravital microscopy (IVM). Fluorescent IVM was performed with an upright microscope (Nikon Optiphot 2, Kawasaki, Japan) equipped with a thermoregulated stage (37° C.), a CCD camera (50 fps, Applitech, Tel-Aviv, Israel) and a VCR (JVC model HR-J437MS, Yokohama, Japan) for video recording.
Fluorescent IVM in the nude mouse ear lobe (Proske et al, 2000) was used for analysis of changes in vascular diameter, vascular permeability and blood flow. RBC from a donor mouse were labeled ex vivo with 4-(4-(didecylamino)styryl)-N-methylpyridinium iodide (4-Di-10-ASP, 7.5 μg/ml, Molecular Probes, Eugene, Oreg., USA), as previously described (Neeman et al., 2001). The labeled RBC mixed with TRITC-dextran (256 KDa, 0.5 mg/mouse as blood-pool marker, Sigma, St. Louis, Mo., USA) were i.v. administered to the tumor-bearing mouse (labeled cells comprised 1.17+/−0.08% of host RBC as verified on blood smears) and allowed to circulate for 10 min prior to video recording (mag. ×100, 20 min), starting 5 min prior to Pd-Bpheid/light and ending 5 min after the light was turned-off. Mice were euthanized by CO2 at the end of the experiment.
Fluorescence images of blood vessels were acquired every 2 minutes, before, during and up to 10 minutes after illumination. Two hemodynamic parameters were digitally calculated (Scionimage software, Scion Corp., USA) from these images: (1) Changes in blood vessel diameter (arteriolar and venular), and (2) Extravascular leakage of TRITC-dextran (measured as changes in mean pixel intensity at an 2500 μm^2 extravascular region of interest). Both parameters are presented as % of initial value.
It was reported by us (Zilberstein et al., 2001) and others (Dolmans et al., 2002), that in course of anti-vascular PDT, rapid and intense hemodynamic alterations and stasis are observed in the treated tumor site. In this experiment, fluorescence IVM was used to correlate these hemodynamic changes with the MR signal alterations before, during and after Pd-Bpheid PDT. All IVM experiments were performed on the mouse ear lobe model (Proske et al., 2000), since blood vessels in this area can be easily visualized non-invasively under the microscope. Three hemodynamic parameters were measured: (1) changes in vessel diameter (vasoconstriction), (2) extravascular macromolecular leakage, and (3) red blood cell (RBC) flux. […] Significant changes in vessel diameter or RBC flux were not observed in control animals (FIGS. 3B, D and F). […] Changes in tumor perfusion were assessed before, during and after Pd-Bpheid PDT. Pd-Bpheid administration and immediate illumination of the mouse ear lobe, initiated a rapid decrease in perfusion rate both in arterioles and vennules (open and solid circles, respectively), reaching stasis within 3-4 min (FIG. 3C), while illumination alone had no significant effect (FIG. 3D).

[5] = tested on: human blood; test: Spectroscopic sPO2 of photosensitized blood
Protocol: sPO2 of photosensitized blood: Optical spectroscopy. Fresh human blood collected in Na-citrate was steered (37° C.) in a sealed optical cuvette (under N2) without or with Pd-Bpheid (100 μg/ml). Online spectroscopic sPO2 determination was performed with a LESA reflectance spectrometer (Biospec, Moscow, Russia) as described (Neeman et al., 2001). Recording was initiated 2 minutes prior to illumination. Ten illumination cycles (1 min each, 170 mW/cm^2) were performed with spectral measurements (8×5 sec) in the intervening periods when the light was turned-off.
For spectroscopic examination, fresh human blood was subjected to spectral analysis of sPO2 during PDT in vitro. […] Upon illumination, a rapid decline in sPO2 was observed reaching a plateau at ˜25% (≧2 minutes of illumination). In the absence of Pd-Bpheid, illumination had no effect.

[6] = tested on: human blood; test: T2* weighted MRI of photosensitized isolated blood (ex vivo); details: for Decline in T2* weighted MR signal intensity of blood: untreated blood = 100%
Protocol: (c) Ex-vivo measurements: Freshly collected human blood in sodium citrate was spun down and re-suspended in autologous plasma to 0.6-0.7 hematocrit to minimize red blood cell (RBC) sedimentation during MRI experiments. Blood samples (500 μl) were placed in 6×50 mm glass tubes (Kimble, Div. of Owens, Ill., USA), sealed under N2 and each placed in a 3.5 ml optical plastic cuvette containing 2 ml of PBS. A proton volume coil was used (field of view 7 cm, slice thickness 2 mm, data was zero filled to matrix 512×512). Data were analyzed as the mean signal intensity of the blood sample relative to the surrounding phosphate-buffered saline (PBS).
For the MRI examination, we next determined the effect of PDT on sPO2 in isolated human blood, as manifested in T2* weighted MR signal intensity, under similar conditions. […] Thus, photosensitization of Pd-Bpheid in blood reduces sPO2 as reflected by a significant decrease in signal intensity of […] MR images in the absence of flow and volume changes.

[7] = tested on: M2R melanoma tumor; test: Online BOLD-contrast MRI during solid tumor PDT; assay type: in vivo, mouse
Protocol: (a) Gradient echo (GE) and multiecho gradient echo (MEGE) MR images were acquired on a horizontal 4.7 T Bruker Biospec spectrometer (Rheinstetten, Germany), as described previously (Gilead et al., 1999). Imaging parameters are as follows: slice thickness 0.8 mm, TR 230 ms, TE 10 ms for GE and TE 10, 21.24 and 32.48 ms for MEGE, flip angel 40°, acquisition (AQ) time 117 sec, matrix 256×256 pixels.
(b) Animal studies: Whole body excitation coil and an RF decoupled 1.5 cm surface coil were used for improving signal/noise ratio (field of view 4 cm, slice thickness 0.8 mm). Mice were anesthetized, catheterized, and restrained by adhesive tape (supine/lateral) to locate the tumor above the center of the MRI surface coil; the laser optic fiber was fixed in place to illuminate the tumor area (FIG. 5A). After four sequential images were acquired, mice were treated i.v. with Pd-Bpheid (5 mg/kg) followed by 10 min illumination, while 11 more images were acquired. Room temperature was maintained at 28° C.
(d) Data analysis: MRI data was analyzed using Matlab (The MathWorks Inc., Natick, Mass., USA), Orisis (Version 4.0.9, Geneva, Switzerland) and Paravision 2.1.1 (Bruker, Rheinstetten, Germany). MR signal intensity was derived from each image, either from the region of interest inside the tumor or in control tissue, and normalized to the first image. Response maps were generated by division of each image by the average of the first 2 pre-PDT images. R2* maps were derived by noise weighted linear regression of log(SI), for each pixel. Only pixels with fit of R^2≧0.36 were analyzed. R2*: MRI relaxivity parameter; R^2: statistical correlation parameter.
Having shown that photosensitization of Pd-Bpheid induces changes in blood oxygen levels, we next attempted to detect such changes during PDT of a solid tumor in vivo, using MRI. BOLD-MR imaging was applied before, during and after PDT of the solid subcutaneous M2R melanoma tumor. Pd-Bpheid administration, followed by instant tumor illumination, induced a profound decrease in the MR signal intensity (25-40%) solely within the illuminated tumor area (FIGS. 5C, 6A and 6E). […] MR signal attenuation developed during the first 6-7 minutes of illumination and remained low throughout the experiment.
The MRI value ΔR2* (relaxivity difference in T2*-weighted acquisitions) is dependent only on changes in blood oxygenation and volume, and is not dependent on blood flow.

[8] = tested on: normal canine prostate; details: dog, in vivo; cited from earlier work

## bacteriochlorophyll-serine [Bchl-Ser, reference compound]
[1]
  Cure rates after anti-vascular PDT: high cure rates

## CC[C@H]1c2cc3[n-]c4c(c3C)C(=O)[C@H](C(=O)OC)c4c3nc(cc4[n-]c(cc(n2)[C@@H]1C)c(C(C)=O)c4C)[C@@H](C)[C@@H]3CCC(=O)O.[Pd+2] [Pd-Bpheid, Palladium-bacteriopheophorbide]
[2]; 5 mg/kg i.v., instant illumination 10 min, 102 J/cm^2, within 24-48 h
  Hemorrhagic tumor necrosis (responding/treated mice): 10/11
[2]; 5 mg/kg, no light
  Tumors continued to grow (dark control, Pd-Bpheid without illumination): 4/4
[2]; one mouse, 5 mg/kg i.v., 763 nm, 102 J/cm^2, day 54 post treatment
  Tumor outcome in visual follow-up: cure
[3]
  HNE adduct immunostaining (ROS-induced LPO): massive generation of HNE adducts co-localized with tumor blood vessels
[4]; 2-3 minutes after onset of illumination
  Reduction in arteriolar diameter: about 50%
[4]; 2-6 minutes after onset of illumination
  Blood flow (RBC flux): sharp decline in blood flow
[4]; FIG. 3C
  Time to complete blood stasis after onset of illumination: 6 to 7 min
[4]; FIG. 3C, immediate illumination of ear lobe
  Time to stasis (perfusion rate in arterioles and venules): 3 to 4 min
[4]; at end of illumination period, ± S.E.
  Extravascular TRITC-dextran (256 KDa) leakage, highest level: 145±8 % of baseline
[5]; Pd-Bpheid 100 μg/ml, 170 mW/cm^2, ≧2 minutes of illumination
  sPO2 plateau upon illumination: ~25%
[5]; within the first min of illumination, FIG. 4A
  Decline in sPO2: ~75%
[6]; 1 min illumination
  Decline in T2* weighted MR signal intensity of blood: 38.1%
[6]; 5 min illumination
  Decline in T2* weighted MR signal intensity of blood: 74.4%
[6]; Pd-Bpheid without light
  MR signal intensity of dark control blood: essentially identical to that of untreated blood
[7]; 5 mg/kg i.v., 10 min illumination
  Decrease in MR signal intensity in illuminated tumor: 25-40%
[7]; Pd-Bpheid without illumination, FIG. 6C
  Change in MR signal intensity, dark tumor control: No detectable change in signal intensity
[7]; during PDT
  Time to generation of photosensitized MR BOLD-contrast: ≤ 2 min
[7]; from onset of illumination
  Time over which MR signal attenuation developed: 6 to 7 min
[8]
  Outcome of PDT in canine prostate: full necrosis of the tumor without functional urethral damage or damage to other adjacent tissues
[1]; Schreiber et al., 2002
  Incidence of metastasis compared with conventional surgery: decreased the incidence of metastasis
[1]
  Cure rates after anti-vascular PDT: high cure rates
